In ChEMBL document CHEMBL3045258, “Benzimidazole, Benzoxazole and Benzothiazole Derivatives as 5HT2B Receptor Ligands. Synthesis and Preliminary Pharmacological Evaluation” (Med Chem Res, 2005) one finds inhibition, pKb and Activity data, which are given here for 23 molecules.

In general, pKb refers to the Kb on a negative log10 scale, so that one unit is a factor of ten.

Active and inactive are the calls of the source. The rule behind the calls is not given here. A value given as a limit tells only on which side of the number the result lay.

The target of assay [1] is 5-hydroxytryptamine receptor 2B (Rattus norvegicus) (UniProt P30994). In words: Non-surmountable antagonist activity at 5-HT2B in Rattus norvegicus CD (rat) stomach fundus sections assessed as inhibition of serotonin-induced contractile response after 1 hr.
Assay [2] shares this target. The assay can be described thus: Binding affinity to 5-HT2B in Rattus norvegicus CD (rat) stomach fundus sections after 1 hr.
In assay [3] the target is T1, 5-hydroxytryptamine receptor 2C (Rattus norvegicus) (UniProt P08909).
T1 sequence (whole entry): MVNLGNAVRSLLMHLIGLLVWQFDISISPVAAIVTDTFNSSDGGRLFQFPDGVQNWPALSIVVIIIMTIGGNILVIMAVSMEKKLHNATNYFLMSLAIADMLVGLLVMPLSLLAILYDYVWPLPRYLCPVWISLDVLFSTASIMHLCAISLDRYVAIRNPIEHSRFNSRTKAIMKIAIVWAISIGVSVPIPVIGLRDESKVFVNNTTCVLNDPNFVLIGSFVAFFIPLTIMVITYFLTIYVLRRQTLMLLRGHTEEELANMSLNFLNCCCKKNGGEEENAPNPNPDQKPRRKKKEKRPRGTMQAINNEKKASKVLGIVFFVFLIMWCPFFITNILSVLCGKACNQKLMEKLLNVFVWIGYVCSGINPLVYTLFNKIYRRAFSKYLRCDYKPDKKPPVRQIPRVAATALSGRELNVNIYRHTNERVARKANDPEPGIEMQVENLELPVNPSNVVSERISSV
In words: Displacement of [3H]mesulergine from 5-HT2C in Rattus norvegicus CD (rat) […] sections at 10 uM after 1 hr.

The target in assay [4] is 5-hydroxytryptamine receptor 2A (Rattus norvegicus) (UniProt P14842). In words: Displacement of [3H]ketansarin from 5-HT2A in Rattus norvegicus CD (rat) […] sections at 10 uM after 1 hr.
Assay [5] deals with 5-hydroxytryptamine receptor 2B (Rattus norvegicus) (UniProt P30994). The assay can be described thus: Antagonist activity at 5-HT2B in Rattus norvegicus CD (rat) stomach fundus sections assessed as inhibition of serotonin-induced contractile response at 10 '-5 M after 1 hr.

5-hydroxytryptamine receptor 2A (Rattus norvegicus), sequence (P14842 whole entry): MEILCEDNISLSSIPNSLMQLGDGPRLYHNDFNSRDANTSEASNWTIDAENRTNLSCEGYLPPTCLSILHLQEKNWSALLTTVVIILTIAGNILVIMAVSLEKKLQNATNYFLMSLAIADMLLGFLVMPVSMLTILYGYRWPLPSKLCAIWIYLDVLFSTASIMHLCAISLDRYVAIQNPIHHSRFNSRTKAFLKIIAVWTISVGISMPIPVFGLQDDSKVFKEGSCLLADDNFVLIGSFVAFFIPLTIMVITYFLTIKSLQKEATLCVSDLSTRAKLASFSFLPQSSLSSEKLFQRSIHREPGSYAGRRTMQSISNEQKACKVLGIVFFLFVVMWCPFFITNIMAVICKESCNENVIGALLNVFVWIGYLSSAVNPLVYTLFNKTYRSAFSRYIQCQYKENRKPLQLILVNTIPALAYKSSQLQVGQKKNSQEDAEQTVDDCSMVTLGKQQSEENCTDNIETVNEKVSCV
5-hydroxytryptamine receptor 2B (Rattus norvegicus), sequence (P30994 whole entry): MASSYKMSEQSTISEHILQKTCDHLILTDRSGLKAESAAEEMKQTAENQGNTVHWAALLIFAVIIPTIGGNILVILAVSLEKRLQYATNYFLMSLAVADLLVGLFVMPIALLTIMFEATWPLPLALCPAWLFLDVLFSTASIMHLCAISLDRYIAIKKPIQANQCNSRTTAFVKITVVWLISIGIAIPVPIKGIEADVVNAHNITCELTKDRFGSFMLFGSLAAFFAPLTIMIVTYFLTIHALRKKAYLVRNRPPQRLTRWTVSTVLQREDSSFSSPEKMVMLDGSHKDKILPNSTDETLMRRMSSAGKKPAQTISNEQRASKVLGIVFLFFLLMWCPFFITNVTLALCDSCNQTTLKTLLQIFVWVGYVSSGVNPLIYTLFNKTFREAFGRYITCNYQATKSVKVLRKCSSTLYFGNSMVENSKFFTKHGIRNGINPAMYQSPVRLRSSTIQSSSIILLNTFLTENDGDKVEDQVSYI

Regarding `OC(Cc1ccccc1)c1cc2ccccc2[nH]1` (configuration not stated), the inhibition entry in assay [1] was “inactive”. The same molecule showed a negative-log Kb (pKb) in assay [2] below 5. For the same molecule, the Activity in assay [3] and in assay [4] was below 5% throughout.

As to `O/N=C(\Cc1ccccc1)c1cc2ccccc2[nH]1`, the inhibition entry in assay [1] was “inactive”. The molecule also showed a negative-log Kb (pKb) in assay [2] below 5. Besides, the Activity in assay [3] and in assay [4] was below 5% in each case.

As to `OC(Cc1ccccc1)c1nc2ccccc2s1` (configuration not stated), the inhibition entry in assay [1] is “inactive”. In assay [2], this molecule returned a pKb of 5.25. The Activity in assay [3] and in assay [4] was below 5% in each case.

In the case of `OC(Cc1ccccc1)c1nc2ccccc2[nH]1` (configuration not stated), the inhibition result in assay [1] is “inactive”. In addition, the negative-log Kb (pKb) in assay [2] was determined as 5.16. The Activity in assay [3] and in assay [4] was below 5% each time.

As for `COc1ccc(CCc2nc3ccccc3[nH]2)cc1OC`, in assay [1], the inhibition entry was “inactive”. In assay [2], this molecule had a pKb of 5.84. In addition, the Activity in assay [3] and in assay [4] was below 5% throughout.

As to `COc1ccc(CC(O)c2nc3ccccc3o2)cc1OC` (configuration not stated), the inhibition entry in assay [1] was “inactive”. Besides, the negative logarithm of the Kb (pKb) in assay [2] amounted to 5.1. Moreover, the Activity in assay [3] and in assay [4] was below 5% each time.

In the case of `CCNC(Cc1ccccc1)c1nc2ccccc2[nH]1` (configuration not stated), in assay [1], the inhibition entry is “inactive”. Besides, the negative-log Kb (pKb) in assay [2] is 5.84. In addition, the Activity in assay [3] and in assay [4] was below 5% in each case.

Take `COC(=O)[C@@H]1[C@H]2C[C@H]3c4[nH]c5ccccc5c4CCN3C[C@@H]2CC[C@@H]1O`: the negative logarithm of the Kb (pKb) in assay [2] is 7.74.

For the molecule `c1ccc(CCc2nc3ccccc3s2)cc1`, the inhibition result in assay [1] is “inactive”. In assay [2], the negative logarithm of the Kb (pKb) is 5.15. Also, the Activity in assay [3] and in assay [4] was below 5% in each case.

Regarding `COc1ccc(CC2NCCc3c2[nH]c2ccccc32)cc1OC` (configuration not stated), the negative-log Kb (pKb) in assay [2] worked out at 9.17.

For the molecule `c1ccc(CCc2nc3ccccc3o2)cc1`, the inhibition result in assay [1] is “inactive”. In assay [2], this molecule came in with a pKb of 5.23. In addition, the Activity in assay [3] and in assay [4] was below 5% in each case.

Turning to `O=C(Cc1ccccc1)c1cc2ccccc2[nH]1`, the inhibition entry in assay [1] was “inactive”. In addition, the pKb in assay [2] came out at 5.58. For the same molecule, the Activity in assay [3] and in assay [4] was below 5% throughout.

As to `OC(Cc1ccccc1)c1nc2ccccc2o1` (configuration not stated), the inhibition entry in assay [1] and in assay [5] was “inactive” each time. Further, the pKb in assay [2] is below 5. For the same molecule, the Activity in assay [3] and in assay [4] was below 5% each time.

Turning to `COc1ccc(CCc2nc3ccccc3o2)cc1OC`, the inhibition entry in assay [1] is “inactive”. Besides, in assay [2], the pKb worked out at 5.59. The Activity in assay [3] and in assay [4] was below 5% throughout.

Consider `CCNCc1nc2ccccc2[nH]1`, for which the inhibition entry in assay [1] and in assay [5] was “inactive” in each case. This molecule also gave a negative logarithm of the Kb (pKb) in assay [2] below 5. The Activity in assay [3] and in assay [4] was below 5% throughout.

Regarding `NC(Cc1ccccc1)c1nc2ccccc2[nH]1` (configuration not stated), the inhibition result in assay [1] and in assay [5] was “inactive” each time. For the same molecule, the pKb in assay [2] was below 5. For the same molecule, the Activity in assay [3] and in assay [4] was below 5% each time.

Regarding `NCc1nc2ccccc2[nH]1`, the inhibition entry in assay [1] and in assay [5] was “inactive” in each case. This molecule had a pKb in assay [2] below 5. In addition, the Activity in assay [3] and in assay [4] was below 5% in each case.

Consider `NC(Cc1ccccc1)c1nc2ccccc2s1` (configuration not stated), for which the inhibition entry in assay [1] and in assay [5] was “inactive” in each case. For the same molecule, in assay [2], the pKb is below 5. In addition, the Activity in assay [3] and in assay [4] was below 5% each time.

`c1ccc(CCc2nc3ccccc3[nH]2)cc1`: the inhibition result in assay [1] is “inactive”. For the same molecule, the pKb in assay [2] came to 5.29. Besides, the Activity in assay [3] and in assay [4] was below 5% throughout.

In the case of `COc1ccc(CCc2nc3ccccc3s2)cc1OC`, the inhibition result in assay [1] is “inactive”. In assay [2], this molecule registered a pKb of 5.61. In addition, the Activity in assay [3] and in assay [4] was below 5% in each case.

On to `NC(Cc1ccccc1)c1cc2ccccc2[nH]1` (configuration not stated), for which the inhibition entry in assay [1] is “inactive”. The pKb in assay [2] is below 5. In addition, the Activity in assay [3] and in assay [4] was below 5% throughout.

Consider `COc1ccc(CC(O)c2nc3ccccc3s2)cc1OC` (configuration not stated), for which the inhibition result in assay [1] was “inactive”. The molecule also showed a pKb in assay [2] of 5.16. For the same molecule, the Activity in assay [3] and in assay [4] was below 5% each time.

Regarding `COc1ccc(CC(O)c2nc3ccccc3[nH]2)cc1OC` (configuration not stated), the inhibition result in assay [1] and in assay [5] was “inactive” in each case. Further, the pKb in assay [2] was below 5. In addition, the Activity in assay [3] and in assay [4] was below 5% throughout.
